Test system: live parasites, most commonly a louse
Test: Petri dish screening: drops of test formulation on live parasites
Format: in vivo
Settings: evaluation of solvents, method of Example 1
From the text: In one procedure that provides an evaluative method for determining effectiveness of commercial products, live parasites were removed from subjects' hair and placed into a Petri dish. One to two drops of test formulation were placed upon the test insect, most commonly a louse. The specimen was observed under magnification for initial movement, and was kept under observation for up to fifteen additional minutes. […] The effectiveness of the treatment was then rated on a 0-4 scale, with a score of 0 denoting total ineffectiveness and a score of 4 denoting total kill.

**Q.** For `CCCCOC(=O)CC(C)O` (stereo not shown) [Example B1, Butyl 3-hydroxybutyrate], which “Efficacy Score” value is on record?
**A.** 0 (No elimination of live lice after 5 minutes (100% live lice remain))

Source: patent US10334853B2, “Compositions and methods for treating ectoparasite infestation” (Larada Sciences, Inc., priority 2016, dated 2019)
